Key:
[1] = In vitro potassium channel opening activity in A10 (smooth muscle) cells; Inactive; format: functional, cell-based, Rattus norvegicus
[2] = test system: Rattus norvegicus; test: Effective dose required for lowering of blood pressure, when administered intravenously to CUP-anesthetized rats; format: functional; conditions: iv
[3] = In vitro potassium channel opening activity in A10 (smooth muscle) cells; format: functional, cell-based, Rattus norvegicus

Row | Compound | EC50 [1] | ED30 [2] [µg/kg] | EC50 [3] [nM]
1 | CCCNC1=NC(=O)[C@]2(CC(C)(C)Oc3ccc(Br)cc32)N1 | Not Active |  | 
2 | CCCNC1=NC(=O)[C@@]2(CC(C)(C)Oc3ccc(Br)cc32)N1 |  | 2.5 | 4
